Measured values taken from patent US7820829B2, “Bisbenzisoselenazolonyl derivatives having antineoplastic, anti-inflammatory and antithrombotic activities as well as their use” (Peking University, priority 2001, dated 2010).

Columns and labels:
[1] = system: mice; conditions: cited from earlier work
[2] = system: xylene-induced ear oedema; test: Xylene-induced ear oedema in mice; type: in vivo; conditions: oral; for Inhibiting rate (%) (to aspirin): relative to aspirin 200 mg/kg; for Inhibiting rate (%) (to indomethacin): relative to indomethacin 22 mg/kg
Description: The anti-inflammatory effects of the test compounds E001, E002 and E 003 were evaluated in xylene-induced ear oedema in mice. The mice were randomized into a no-treatment control group, three reference groups and three treatment groups. There are 10 animals in each group. The test compounds, saline and reference drugs (indomethacin, Aspirin and Ebselen) were orally administered respectively. Ear oedema was induced by topical administration of xylene ([…] per ear) to the inner surface of the right ear after 1 hour of the administration. After 2 hours, the mice were killed. The change in the ear's weight with diameter of 8 mm was measured with a precision micrometer. The inhibiting rate of each compound to the xylene-induced ear oedema was calculated in accordance with the ear weight and the results were listed in Table 7.
The procedure described in Example 8 was repeated. And the results of the experiment are shown by the following table: […]

[3] = system: HL-60; test: E003 in combination with other antineoplastic agents on growth of cancer cell; type: cell-based, human; conditions: HL-60, 24 h
[4] = system: thrombosis; test: Electrically induced thrombosis in rat neck artery (OT value); type: in vivo; conditions: male SD rats, oral 30 mg/kg, 1 hour after administration; electricity 3 mA, 180 s
Description: Male SD rats (300-400 g) were randomized into a no-treatment control group (0.25% CMC), an ASA reference group (0.25% CMC, a few Tween-80) and three treatment groups (the compounds E001, E002 and E003). There are 5 animals in each group. The inventive compounds and reference drugs were orally administered respectively in amount of 30 mg/kg. The animals were anesthetized with urethane after 1 hour of the administration. The neck artery was separated surgically and OT value was measured (the stimulating conditions: electricity, 3 mA; time, 180 s).

[5] = system: Lewis lung cancer; test: Lewis lung cancer transplanted in C57 mice; type: in vivo, C57 mouse; conditions: 2 mg/kg
Description: Lewis lung cancer tissue was resuscitated and subcultured by standard procedure. A piece of Lewis lung cancer was transplanted into the subcutaneous space on the back of each C 57 mouse for inoculation and growth. The Lewis lung cancer cells were dispersed in saline to form a cell suspension of 10^6/ml. 0.2-0.3 ml of the suspension were inoculated into each C57 mouse Mice were randomized into three groups, 10 for each group. In the treatment group, the mice were injected i.p. with […] in amount of 50 mg/kg; in reference group, DDp, 2 mg/kg; and in the negative control group (solvent group), 0.5% CMC-Na. The total volume for every group is the same. […] was administered by i.p. from the second day of transplantation for 3 days until the mice were sacrificed. The C57 mice were disinfected with 70% alcohol. The Lewis lung cancer tissue was removed, photographed and weighted. Then, the subcutaneous tumors were fixed by formaldehyde for further analysis.

For `O=c1c2ccccc2[se]n1-c1ccccc1` [Ebselen, 2-phenyl-(1,2)-benzisoselenazol-3(2H)-on], the LD50 [1] is listed as > 6810 mg/kg, the Ear oedema % ([2]; Example 8, mice, 50 mg/kg) is listed as 6.22% and the “Inhibiting rate (%) (to aspirin)” value ([2]; Example 8, mice, 50 mg/kg) is listed as 41.48 (to aspirin) %. For the same molecule, the “Inhibiting rate (%) (to indomethacin)” value ([2]; Example 8, mice, 50 mg/kg) was 68.72 (to indomethacin) %.

Molecule `COc1cccc2c1C(=O)c1c(O)c3c(c(O)c1C2=O)C[C@@](O)(C(=O)CO)C[C@@H]3O[C@H]1C[C@H](N)[C@H](O)[C@H](C)O1` [Adriamycin] has an inhibition at 0.1 µg/mL ([3]; Homo sapiens, Adriamycin alone 0.1 mg/L, read-out: Inhibition rate) of -7 ± 0.7%.

For `CC(=O)Oc1ccccc1C(=O)O` [Aspirin], the “Average OT value” [4] was 588.2 s, the Ear oedema % ([2]; Example 8, mice, 200 mg/kg) was 10.63% and the Ear oedema % ([2]; Example 11, mice, 200 mg/kg) was 10.27%.

With `COc1ccc2c(c1)c(CC(=O)O)c(C)n2C(=O)c1ccc(Cl)cc1` [Indomethacin] the Ear oedema % ([2]; Example 8, mice, 22 mg/kg) was 19.89% and the Ear oedema % ([2]; Example 11, mice, 22 mg/kg) was 19.12%.

With `CC(=O)OC[C@H]1OC(OC(C)=O)[C@H](n2[se]c3ccccc3c2=O)[C@@H](OC(C)=O)[C@@H]1OC(C)=O` (stereo partly drawn) [Compound E001, 2-(1,3,4,6-tetra-O-acetyl-2-deoxy-D-glucopyranosyl)-(1,2)-benzisoselenazol-3(2H)-one] the “Average OT value” [4] was 561.2 s, the Ear oedema % ([2]; Example 8, mice, 50 mg/kg) was 4.81% and the “Inhibiting rate (%) (to aspirin)” value ([2]; Example 8, mice, 50 mg/kg) was 54.75 (to aspirin) %. For the same molecule, the “Inhibiting rate (%) (to indomethacin)” value ([2]; Example 8, mice, 50 mg/kg) was 75.81 (to indomethacin) %.

Work on `CC(=O)O[C@H]1C(=O)[C@@]2(C)[C@H]([C@H](OC(=O)c3ccccc3)[C@]3(O)C[C@H](OC(=O)[C@H](O)[C@@H](NC(=O)c4ccccc4)c4ccccc4)C(C)=C1C3(C)C)[C@]1(OC(C)=O)CO[C@@H]1C[C@@H]2O` [Taxol] yielded an inhibition at 0.001 µg/mL ([3]; Homo sapiens, Taxol alone 0.001 mg/L, read-out: Inhibition rate) of 2 ± 1% and an inhibition at 0.01 µg/mL ([3]; Homo sapiens, Taxol alone 0.01 mg/L, read-out: Inhibition rate) of 27 ± 7.9%.

In the case of `N.N.[Cl][Pt][Cl]` [DDP, Cisplatin], the Inhibition rate ([3]; Cisplatin alone 0.5 μmol/L) is reported as 0.067 ± 0.014, the Inhibition rate ([3]; Cisplatin alone 5 μmol/L) is reported as 0.12 ± 0.032 and the “tumor volume, average” value [5] is reported as 473 mm^3.
